What was measured:
Test in all cases: relative viability (nuclei count vs DMSO), 5 days (fraction); higher = more cells survive
[1] = compound: O=C(NCCCNc1nc(Nc2cccc(NC(=O)N3CCCC3)c2)ncc1I)c1cccs1 [BX 795] + Cc1nc(Nc2ncc(C(=O)Nc3c(C)cccc3Cl)s2)cc(N2CCN(CCO)CC2)n1 [Dasatinib] (partner 0.075 µM)
How it was run: (§1)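 Lung cancer cell lines were seeded in 1536-well plates and dosed by pin tool the next day, with either a single drug or a fixed anchor-drug dose combined with five library-drug doses (not always all listed) spaced in √10 steps. Five days later, one step fixed the cells and stained their nuclei (final 0.05% Triton X-100, 1% formaldehyde, 1 ug/ml Hoechst), and nuclei were counted on 4× images. Relative viability is the nuclei count in treated wells divided by the count in vehicle wells, and each value is the median of duplicate plates.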

[2] = compound: O=C(NCCCNc1nc(Nc2cccc(NC(=O)N3CCCC3)c2)ncc1I)c1cccs1 [BX 795] + CCNC(=O)c1noc(-c2cc(C(C)C)c(O)cc2O)c1-c1ccc(CN2CCOCC2)cc1 [Luminespib] (partner 0.01 µM)
How it was run: as §1

[3] = compound: O=C(NCCCNc1nc(Nc2cccc(NC(=O)N3CCCC3)c2)ncc1I)c1cccs1 [BX 795] + COc1cc2c(Oc3ccc(NC(=O)C4(C(=O)Nc5ccc(F)cc5)CC4)cc3F)ccnc2cc1OCCCN1CCOCC1 [Foretinib] (partner 0.25 µM)
How it was run: as §1

[4] = compound: O=C(NCCCNc1nc(Nc2cccc(NC(=O)N3CCCC3)c2)ncc1I)c1cccs1 [BX 795] + N=C(N)NC(=N)NCCc1ccccc1 [Phenformin] (partner 250 µM)
How it was run: as §1

[5] = compound: O=C(NCCCNc1nc(Nc2cccc(NC(=O)N3CCCC3)c2)ncc1I)c1cccs1 [BX 795] + COc1cccc2cc(-c3nc([C@H]4CC[C@H](C(=O)O)CC4)n4ncnc(N)c34)[nH]c12 [OSI-027] (partner 0.5 µM)
How it was run: as §1

[6] = compound: O=C(NCCCNc1nc(Nc2cccc(NC(=O)N3CCCC3)c2)ncc1I)c1cccs1 [BX 795] + Cc1cc(Nc2cc(N3CCN(C)CC3)nc(Sc3ccc(NC(=O)C4CC4)cc3)n2)n[nH]1 [Tozasertib] (partner 0.1 µM)
How it was run: as §1

[7] = compound: O=C(NCCCNc1nc(Nc2cccc(NC(=O)N3CCCC3)c2)ncc1I)c1cccs1 [BX 795]
How it was run: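 Five library-drug doses spaced by √10 were pinned onto vehicle-anchored 1536-well plates of lung cancer cell lines that had been kept overnight at 37 °C. Cells went 5 days without medium change, then were fixed, permeabilised and Hoechst-stained together, imaged at 4× and counted by MetaXpress. Viability is the ratio of treated-well to vehicle-well nuclei, taken as a median over plates. Plates required control CV below 25% and at least one doubling.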

[8] = compound: O=C(NCCCNc1nc(Nc2cccc(NC(=O)N3CCCC3)c2)ncc1I)c1cccs1 [BX 795] + CC(=O)Nc1cccc(-n2c(=O)n(C3CC3)c(=O)c3c(Nc4ccc(I)cc4F)n(C)c(=O)c(C)c32)c1 [Trametinib] (partner 0.02 µM)
How it was run: as §1

[9] = compound: O=C(NCCCNc1nc(Nc2cccc(NC(=O)N3CCCC3)c2)ncc1I)c1cccs1 [BX 795] + Nc1ncn([C@H]2C[C@H](O)[C@@H](CO)O2)c(=O)n1 [Decitabine] (partner 2 µM)
How it was run: as §1

[10] = compound: O=C(NCCCNc1nc(Nc2cccc(NC(=O)N3CCCC3)c2)ncc1I)c1cccs1 [BX 795] + NC(=O)Nc1cc(-c2cccc(F)c2)sc1C(=O)N[C@H]1CCCNC1 [AZD7762] (partner 0.2 µM)
How it was run: as §1

[11] = compound: O=C(NCCCNc1nc(Nc2cccc(NC(=O)N3CCCC3)c2)ncc1I)c1cccs1 [BX 795] + Nc1nc2[nH]cc(CCc3ccc(C(=O)N[C@@H](CCC(=O)O)C(=O)O)cc3)c2c(=O)[nH]1 [Pemetrexed] (partner 0.2 µM)
How it was run: as §1

[12] = compound: O=C(NCCCNc1nc(Nc2cccc(NC(=O)N3CCCC3)c2)ncc1I)c1cccs1 [BX 795] + CC(=O)c1c(C)c2cnc(Nc3ccc(N4CCNCC4)cn3)nc2n(C2CCCC2)c1=O [Palbociclib] (partner 0.5 µM)
How it was run: as §1

[13] = compound: O=C(NCCCNc1nc(Nc2cccc(NC(=O)N3CCCC3)c2)ncc1I)c1cccs1 [BX 795] + O=C(CCCCCCC(=O)Nc1ccccc1)NO [Vorinostat] (partner 1 µM)
How it was run: as §1

[14] = compound: O=C(NCCCNc1nc(Nc2cccc(NC(=O)N3CCCC3)c2)ncc1I)c1cccs1 [BX 795] + O=C(c1cc(Cc2n[nH]c(=O)c3ccccc23)ccc1F)N1CCN(C(=O)C2CC2)CC1 [Olaparib] (partner 8 µM)
How it was run: as §1

Question: For NCI-H1623, which relative viability ([1]; first compound 0.04 µM) is on record?
Answer: 0.537

Question: What about the relative viability ([1]; first compound 0.1265 µM) of the same cell line?
Answer: 0.572

Question: What about the relative viability ([1]; first compound 0.4 µM) of the same cell line?
Answer: 0.533

Question: What about the relative viability ([1]; first compound 1.265 µM) of the same cell line?
Answer: 0.512

Question: And the relative viability ([2]; first compound 0.04 µM)?
Answer: 0.598

Question: And the relative viability ([2]; first compound 0.1265 µM)?
Answer: 0.511

Question: What about the relative viability ([2]; first compound 0.4 µM) of the same cell line?
Answer: 0.5

Question: And the relative viability ([2]; first compound 1.265 µM)?
Answer: 0.572

Question: What about the relative viability ([3]; first compound 0.04 µM) of the same cell line?
Answer: 0.913

Question: And the relative viability ([3]; first compound 0.1265 µM)?
Answer: 0.952

Question: What about the relative viability ([3]; first compound 0.4 µM) of the same cell line?
Answer: 0.88

Question: And the relative viability ([3]; first compound 1.265 µM)?
Answer: 0.892

Question: What about the relative viability ([4]; first compound 0.04 µM) of the same cell line?
Answer: 0.611

Question: And the relative viability ([4]; first compound 0.1265 µM)?
Answer: 0.568

Question: What about the relative viability ([4]; first compound 0.4 µM) of the same cell line?
Answer: 0.491

Question: And the relative viability ([4]; first compound 1.265 µM)?
Answer: 0.516

Question: And the relative viability ([5]; first compound 0.04 µM)?
Answer: 0.458

Question: What about the relative viability ([5]; first compound 0.1265 µM) of the same cell line?
Answer: 0.421

Question: And the relative viability ([5]; first compound 0.4 µM)?
Answer: 0.402

Question: And the relative viability ([5]; first compound 1.265 µM)?
Answer: 0.466

Question: And the relative viability ([6]; first compound 0.04 µM)?
Answer: 0.429

Question: And the relative viability ([6]; first compound 0.1265 µM)?
Answer: 0.386

Question: And the relative viability ([6]; first compound 0.4 µM)?
Answer: 0.392

Question: And the relative viability ([6]; first compound 1.265 µM)?
Answer: 0.461

Question: And the relative viability ([7]; 0.04 µM)?
Answer: 1.15

Question: What about the relative viability ([7]; 0.1265 µM) of the same cell line?
Answer: 0.972

Question: And the relative viability ([7]; 0.4 µM)?
Answer: 0.989

Question: What about the relative viability ([7]; 1.265 µM) of the same cell line?
Answer: 0.892

Question: NCI-H1648 was tested. Which relative viability ([8]; first compound 0.04 µM) did it give?
Answer: 0.526

Question: And the relative viability ([8]; first compound 0.1265 µM)?
Answer: 0.451

Question: And the relative viability ([8]; first compound 0.4 µM)?
Answer: 0.575

Question: What about the relative viability ([8]; first compound 1.265 µM) of the same cell line?
Answer: 0.481

Question: And the relative viability ([9]; first compound 0.04 µM)?
Answer: 0.584

Question: And the relative viability ([9]; first compound 0.1265 µM)?
Answer: 0.442

Question: And the relative viability ([9]; first compound 0.4 µM)?
Answer: 0.523

Question: What about the relative viability ([9]; first compound 1.265 µM) of the same cell line?
Answer: 0.616

Question: And the relative viability ([10]; first compound 0.04 µM)?
Answer: 0.833

Question: And the relative viability ([10]; first compound 0.1265 µM)?
Answer: 0.756

Question: And the relative viability ([10]; first compound 0.4 µM)?
Answer: 0.791

Question: What about the relative viability ([10]; first compound 1.265 µM) of the same cell line?
Answer: 0.911

Question: What about the relative viability ([11]; first compound 0.04 µM) of the same cell line?
Answer: 0.727

Question: And the relative viability ([11]; first compound 0.1265 µM)?
Answer: 0.824

Question: And the relative viability ([11]; first compound 0.4 µM)?
Answer: 0.834

Question: And the relative viability ([11]; first compound 1.265 µM)?
Answer: 1.02

Question: And the relative viability ([12]; first compound 0.04 µM)?
Answer: 0.267

Question: And the relative viability ([12]; first compound 0.1265 µM)?
Answer: 0.264

Question: What about the relative viability ([12]; first compound 0.4 µM) of the same cell line?
Answer: 0.411

Question: What about the relative viability ([12]; first compound 1.265 µM) of the same cell line?
Answer: 0.299

Question: What about the relative viability ([13]; first compound 0.04 µM) of the same cell line?
Answer: 0.441

Question: What about the relative viability ([13]; first compound 0.1265 µM) of the same cell line?
Answer: 0.525

Question: What about the relative viability ([13]; first compound 0.4 µM) of the same cell line?
Answer: 0.668

Question: What about the relative viability ([13]; first compound 1.265 µM) of the same cell line?
Answer: 0.535

Question: And the relative viability ([5]; first compound 0.04 µM)?
Answer: 0.258

Question: And the relative viability ([5]; first compound 0.1265 µM)?
Answer: 0.214

Question: And the relative viability ([5]; first compound 0.4 µM)?
Answer: 0.265

Question: And the relative viability ([5]; first compound 1.265 µM)?
Answer: 0.247

Question: And the relative viability ([6]; first compound 0.04 µM)?
Answer: 0.611

Question: And the relative viability ([6]; first compound 0.1265 µM)?
Answer: 0.466

Question: What about the relative viability ([6]; first compound 0.4 µM) of the same cell line?
Answer: 0.638

Question: And the relative viability ([6]; first compound 1.265 µM)?
Answer: 0.378

Question: And the relative viability ([14]; first compound 0.04 µM)?
Answer: 0.869

Question: And the relative viability ([14]; first compound 0.1265 µM)?
Answer: 1.51

Question: What about the relative viability ([14]; first compound 0.4 µM) of the same cell line?
Answer: 1.15

Question: What about the relative viability ([14]; first compound 1.265 µM) of the same cell line?
Answer: 1.11

Question: What about the relative viability ([7]; 0.04 µM) of the same cell line?
Answer: 0.872

Question: What about the relative viability ([7]; 0.1265 µM) of the same cell line?
Answer: 0.804

Question: What about the relative viability ([7]; 0.4 µM) of the same cell line?
Answer: 0.972

Question: What about the relative viability ([7]; 1.265 µM) of the same cell line?
Answer: 1.01
